Laboratory results: patent US20010014748A1, “HIV INTEGRASE INHIBITORS” (priority 1998, published 2001)

Biological target: T1, HIV integrase (Human immunodeficiency virus type 1 group M subtype B, UniProt P04585)
T1 construct: strand transfer reaction catalyzed by the recombinant integrase in vitro
Test: HIV integrase assay: strand transfer catalyzed by recombinant integrase
Format: biochemical
Details: strand transfer activity of recombinant integrase
Description: HIV Integrase Assay: Strand Transfer Catalyzed by Recombinant Integrase
Assays for the strand transfer activity of integrase were conducted according to Wolfe, A. L. et al., J. Virol. 70, 1424 (1996, hereby incorporated by reference for these purposes. Data for representative compounds of the present invention follow: […]

Structure (SMILES) | IC50
CC(=O)OC1C(O)C2=C(CCC3C2(C)CC(OC(=O)CCCCCCCCCCCCCCCO)C(OS(=O)(=O)O)C3(C)C)C2=CCC(C(C)CCC3(C(C)(C)O)CO3)C21C (centres unmarked) [Compound A1] | 14 µM
C=C(CCC(C)C1CCC2C3=C(C(O)C(OC(C)=O)C21C)C1(C)CC(O)C(OS(=O)(=O)O)C(C)(C)C1CC3)C(C)C (centres unmarked) [Compound A3] | 15 µM
C=C(CCC(C)C1CC=C2C3=C(C(O)C(OC(C)=O)C21C)C1(C)CC(O)C(OC(=O)CCC(=O)O)C(C)(C)C1CC3)C(C)C (centres unmarked) [Compound J] | 16 µM
C=C(CCC(C)C1CC=C2C3=C(C(O)C(OC(C)=O)C21C)C1(C)CC(OC(=O)CCC(=O)O)C(O)C(C)(C)C1CC3)C(C)C (centres unmarked) [Compound K] | 68 µM
C=C(CC[C@@H](C)[C@H]1CC=C2C3=C([C@@H](O)[C@H](OC(C)=O)C21C)C1(C)C[C@@H](OC(=O)CN)[C@H](OC(=O)CN)C(C)(C)[C@@H]1CC3)C(C)C (some centres unmarked) [Compound X] | 5 µM
